Measured values as given in paper PMC3389674, “Comparison of Soluble Guanylate Cyclase Stimulators and Activators in Models of Cardiovascular Disease Associated with Oxidative Stress” (Frontiers in Pharmacology, 2012).
Where two headings read alike, the source gives them in different places. Values belong to the compound of their own block, whether it stands above or below them.

How the values were obtained:
[1] = test system: SHR-SP isolated aorta; assay: vasoactivity of SHR-SP isolated aorta (ND, HSFD and after chronic treatment); set-up: species or system rat; details: for EC50: Rattus norvegicus
Experimental: In separate studies, endothelial function was assessed following chronic (7 week) BAY 60-4552 or GSK2181236A treatment in SHR-SP on HSFD. SHR-SP fed either normal or HSFD served as controls. Rats were anesthetized and thoracic aorta were isolated and treated with KCl and phenylephrine as described above. Cumulative concentration-response curves to phenylephrine were obtained by adding 0.5 log unit increments (1 nM to 3 μM). Following several washes with KHB, each vessel was contracted to equilibrium with 0.3 μM phenylephrine and tone was reversed by adding cumulative amounts of carbachol at 0.5 log unit intervals (10 nM to 30 μM). Following several KHB washes, the tissues were again contracted to equilibrium with 0.3 μM phenylephrine and tone was reversed by adding cumulative amounts of SNP at 0.5 log unit intervals (0.1 nM to 3 μM). In separate tissues from both the normal and HSFD SHR-SP control groups, the direct vasodilatory effects of BAY 60-4552 and GSK2181236A were investigated. Contractile tone induced by 0.3 μM phenylephrine was reversed by adding cumulative concentrations of BAY 60-4552 or GSK2181236A to the tissue baths at log increments (0.1 nM to 10 μM).

[2] = test system: dogs; set-up: method as in Korkmaz et al., 2009; details: administered 5 min prior to reperfusion following 60 min global cardiac ischemia; ref Korkmaz et al., 2009; cited from earlier work
[3] = test system: rat hearts; set-up: method as in Krieg et al., 2009; details: administered 5 min prior to reperfusion following 30 min regional ischemia; ref Krieg et al., 2009; cited from earlier work
[4] = test system: rabbit hearts; set-up: method as in Krieg et al., 2009; Cohen et al., 2010; details: administered 5 min prior to reperfusion following 30 min regional ischemia; ref Krieg et al., 2009; Cohen et al., 2010; cited from earlier work

- EC50 ([1]; aorta from HSFD SHR-SP, read-out: Phenylephrine EC50 (contraction)): 0.072 ± 0.011 µM
- EC50 ([1]; aorta from ND SHR-SP, read-out: Phenylephrine EC50 (contraction)): 0.067 ± 0.006 µM
Compound: CNC[C@H](O)c1cccc(O)c1 [Phenylephrine, phenylephrine]
- Phenylephrine Emax ([1]; aorta from HSFD SHR-SP): 83 ± 10 % KCl
- Phenylephrine Emax ([1]; aorta from ND SHR-SP): 90 ± 4 % KCl

- EC50 ([1]; aorta from HSFD SHR-SP, read-out: Carbachol EC50 (vasodilation)): 0.26 ± 0.074 µM
- EC50 ([1]; aorta from ND SHR-SP, read-out: Carbachol EC50 (vasodilation)): 0.119 ± 0.015 µM
Compound: C[N+](C)(C)CCOC(N)=O [Carbachol, carbachol]
- Carbachol Emax ([1]; aorta from HSFD SHR-SP): 47 ± 11 % reversal of PE tone
- Carbachol Emax ([1]; aorta from ND SHR-SP): 85 ± 3 % reversal of PE tone

Compound: O=C(O)CCCCN(CCc1ccccc1OCc1ccc(CCc2ccccc2)cc1)Cc1ccc(C(=O)O)cc1 [BAY 58-2667]
- cardiac function [2]: improved cardiac function
- infarct size [3]: decreased infarct size
- infarct size [4]: decreased infarct size
